{"source": "patent US20110281956A1", "about": "“USE OF THYMUS CAPITATUS EXTRACT, SATUREJA HORTENSIS EXTRACT, OR CARVACROL FOR TREATING METABOLIC DISEASES” (INDUSTRY-ACADEMIC COOPERATION FOUNDATION, YONSEI UNIVERSITY, priority 2009, published 2011)", "key": {"preadipocytes 3T3-L1": {"tested_on": "preadipocytes 3T3-L1", "experiment": "Adipocyte differentiation inhibition, Oil Red O staining", "format": "cell-based, mouse", "conditions": "14 days", "procedure": "The effect of carvacrol […] on adipocyte differentiation and growth was investigated using mouse adipocytes (3T3-L1). Preadipocytes 3T3L1 were placed on a 12-well plate and cultured to confluency in a 5% CO2 incubator at 37° C. using DMEM containing 1% penicillin-streptomycin, 1% non-essential amino acids and 10% fetal bovine serum (FBS). The cultured 3T3-L1 cells were differentiated into adipocytes by culturing for 2 days in a medium containing 0.5 mM methylisobutylxanthine/1 μM dexamethasone/1 μg/mL insulin (DMI). The cells were differentiated into mature adipocytes by further culturing for 2 days in DMEM containing 1 μg/mL insulin. Subsequently, they were further cultured for 10 days while changing DMEM every other day to obtain fully differentiated adipocytes.\nStarting from the day when DMI was added to the 3T3-L1 cells, carvacrol was treated at concentrations of 0.1, 1, 10, 50 and 100 μM every other day. Carvacrol was purchased from Sigma and used after dissolving in DMSO. For negative control, only DMSO was used. After the culturing for a total of 14 days, when the cells were fully differentiated, the medium was removed and the fats contained in the differentiated adipocytes were stained. […]\nTo measure the triglyceride level of the differentiated 3T3-L1 cells, the stained cells were dissolved in 1 mL of isobutanol and OD value was measured at 600 nm."}, "[1]": {"tested_on": "leiomyosarcoma cells isolated from rats cancer-induced with 3,4-benzopyrene", "conditions": "carvacrol at 67 μM for 24 hours or at 90 μM for 48 hours; cited from earlier work"}, "[2]": {"tested_on": "C57BL/6J mice on high-fat diet", "experiment": "Carvacrol-containing high-fat diet fed to mice for 10 weeks: abdominal fat, blood lipids, glucose, insulin, liver lipids", "format": "in vivo, mouse", "procedure": "High-fat diet (HFD: 40% fat calorie, 17 g lard+3% corn oil/100 g diet) was used to induce obesity. Carvacrol-containing diet had the same composition as the HFD except for containing 0.1% carvacrol. Normal diet (ND) was prepared according to AIN-76 rodent diet (see Table 1).\n5-week-old male C57BL/6J mice were accustomed to the laboratory environment for a week while feeding solid feed. They were randomly divided into the ND, HFD and carvacrol groups according to the randomized block design and reared for 10 weeks. Diet was provided between 10 and 11 a.m. every day along with water. Food intake was measured every day, and body weight was measured every 3 days. In order to avoid transient body weight increase due to feed intake, body weight was measured 2 hours after removing the feedbox.\nAfter fasting the test animal for at least 12 hours and anesthetizing with diethyl ether, blood, liver and abdominal fat tissue (epididymal, perirenal, mesenteric and retroperitoneal fat) were taken and weighed after washing with 0.1 M PBS (pH 7.4). The blood taken from the abdominal aorta was centrifuged at 1000×g for 15 minutes to isolate the serum.\nTotal cholesterol level, triglyceride level, glucose level and insulin level in plasma and lipid components in liver tissue were measured as follows. Total cholesterol level, triglyceride level and glucose level in plasma were measured 2 times using a commercially available kit (Bio Clinical System), and insulin level was measured by ELISA using a mouse Insulin kit (Shibayali, Japan). Lipid components were extracted from liver tissue according to Folch et al.'s method (Folch J, Lees M, Sloane Stanley G H. A simple method for the isolation and purification of total lipids from animal tissues. J. Biol. Chem. 1957; 226: 497-509) as follows. After adding 1 mL of distilled water to 0.25 g of liver tissue, the liver tissue was homogenized using a Polytron homogenizer (IKA-WERKE GmbH & Co., Ultra-Turrax, Staufen, Germany). After adding 5 mL of a chloroform/methanol mixture solution (2:1, v/v) to the homogenate and mixing well, centrifugation was performed at 1000×g for 10 minutes. Then, after separating the pellets and adding 2 mL of the chloroform/methanol mixture solution (2: 1, v/v) again to the supernatant, the same procedure was repeated to completely isolate the lipid components. After adding 3 mL of a chloroform/methanol/0.05% CaCl2 mixture solution (3:48:47, v/v/v) to thus obtained pellets and mixing for 1 minute, centrifugation was performed at 1000×g for 10 minutes. Finally, the resulting pellets were completely dried using nitrogen gas and the dried lipids were dissolved in 1 mL of methanol for analysis of the lipid components. Triglyceride level of the liver tissue was measured as in the plasma analysis using the same commercially available kit (Bio Clinical System).\nIn Table 2, the characters a, b and c indicate significance according to one-way ANOVA and Duncan's multiple range test (p<0.001). The atherogenic index was calculated by (total cholesterol−HDL cholesterol)/HDL cholesterol, and the insulin resistance index was calculated by 10^−3 pmol insulin×mmol glucose×L^−2."}, "[3]": {"conditions": "0.1% carvacrol in high-fat diet"}, "[4]": {"conditions": "0.1% carvacrol in high-fat diet, FIG. 2"}, "[5]": {"conditions": "blood (plasma), 0.1% carvacrol in high-fat diet"}, "[6]": {"conditions": "liver tissue, 0.1% carvacrol in high-fat diet"}}, "note": "Entries after “also recorded” stand apart in the source; their conditions may differ. Marks after values point to notes of the source that are not given here.", "data": [{"smiles": "Cc1ccc(C(C)C)cc1O", "note": "[Carvacrol, carvacrol]", "values": [{"measurement": "fats stained with Oil Red O, OD value at 600 nm (cellular fat content)", "setting": "preadipocytes 3T3-L1; 0.1-100 μM, FIG. 1B", "value": "decreased the cellular fat content in a concentration-dependent manner; also recorded: decrease in OD value in a concentration-dependent manner"}, {"measurement": "concentrations at which differentiation of the preadipocytes 3T3-L1 was decreased", "setting": "preadipocytes 3T3-L1; concentration-dependent, 0.1, 1, 10, 50 and 100 μM every other day, FIG. 1A", "value": "≥ 10", "unit": "µM"}, {"measurement": "production of the final product of platelet aggregation thromboxane B2", "setting": "[1]", "value": "decreased"}, {"measurement": "proliferation of cancer cells", "setting": "[1]", "value": "inhibited"}, {"measurement": "Liver weight", "setting": "[2]; [3]", "value": "4.1 ± 0.1^b g/100 g body wt"}, {"measurement": "decrease in LDL+VLDL cholesterol level in plasma (serum) vs HFD", "setting": "[2]; [3]", "value": 46, "unit": "%"}, {"measurement": "decrease in atherogenic index vs HFD", "setting": "[2]; [3]", "value": 44, "unit": "%"}, {"measurement": "decrease in cholesterol level in liver tissue vs HFD", "setting": "[2]; [3]", "value": 42, "unit": "%"}, {"measurement": "decrease in free fatty acid level in liver tissue vs HFD", "setting": "[2]; [3]", "value": 58, "unit": "%"}, {"measurement": "decrease in free fatty acid level in plasma (serum) vs HFD", "setting": "[2]; [3]", "value": 80, "unit": "%"}, {"measurement": "decrease in liver weight (liver-to-body weight ratio) vs HFD", "setting": "[2]; [3]", "value": 25, "unit": "%"}, {"measurement": "decrease in total cholesterol level in plasma (serum) vs HFD", "setting": "[2]; [3]", "value": 29, "unit": "%"}, {"measurement": "decrease in triglyceride level in liver tissue vs HFD", "setting": "[2]; [3]", "value": 48, "unit": "%"}, {"measurement": "decrease in triglyceride level in plasma (serum) vs HFD", "setting": "[2]; [3]", "value": 30, "unit": "%"}, {"measurement": "fasting blood sugar as compared to the HFD group", "setting": "[2]; [3]", "value": "significant decrease"}, {"measurement": "insulin level as compared to the HFD group", "setting": "[2]; [3]", "value": "significant decrease"}, {"measurement": "insulin resistance index as compared to the HFD group", "setting": "[2]; [3]", "value": "significant decrease"}, {"measurement": "decrease in epididymal fat weight vs HFD", "setting": "[2]; [4]", "value": 31, "unit": "%"}, {"measurement": "decrease in mesenteric fat weight vs HFD", "setting": "[2]; [4]", "value": 51, "unit": "%"}, {"measurement": "decrease in perirenal fat weight vs HFD", "setting": "[2]; [4]", "value": 54, "unit": "%"}, {"measurement": "decrease in retroperitoneal fat weight vs HFD", "setting": "[2]; [4]", "value": 23, "unit": "%"}, {"measurement": "decrease in total abdominal fat weight vs HFD", "setting": "[2]; [4]", "value": 36, "unit": "%"}, {"measurement": "Insulin resistance index", "setting": "[2]; 10^−3 pmol insulin×mmol glucose×L^−2, 0.1% carvacrol in high-fat diet", "value": "0.68 ± 0.08^b"}, {"measurement": "Atherogenic index", "setting": "[2]; (total cholesterol−HDL cholesterol)/HDL cholesterol, 0.1% carvacrol in high-fat diet", "value": "0.57 ± 0.18^b"}, {"measurement": "Insulin", "setting": "[2]; ELISA, 0.1% carvacrol in high-fat diet", "value": "0.58 ± 0.06^b ng/mL"}, {"measurement": "Free fatty acid", "setting": "[2]; [5]", "value": "280 ± 35^c uEq/L"}, {"measurement": "HDL cholesterol", "setting": "[2]; [5]", "value": "1.68 ± 0.16^ab mmol/L"}, {"measurement": "LDL + VLDL cholesterol", "setting": "[2]; [5]", "value": "1.11 ± 0.05^b mmol/L"}, {"measurement": "Total cholesterol", "setting": "[2]; [5]", "value": "2.73 ± 0.30^b mmol/L"}, {"measurement": "Triglyceride", "setting": "[2]; [5]", "value": "0.98 ± 0.14^b mmol/L"}, {"measurement": "Glucose", "setting": "[2]; fasting, blood (plasma), 0.1% carvacrol in high-fat diet", "value": "6.83 ± 0.31^b mmol/L"}, {"measurement": "Cholesterol", "setting": "[2]; [6]", "value": "45.4 ± 5.5^b μmol/g"}, {"measurement": "Free fatty acid", "setting": "[2]; [6]", "value": "10.3 ± 0.73^b uEq/g"}, {"measurement": "Triglyceride", "setting": "[2]; [6]", "value": "22.0 ± 6.0^b μmol/g"}]}]}
